Data set [1] concerns the target muscarinic acetylcholine receptors. Nature of the data set: Inhibition of specific binding of 3H-Oxotremorine-M (3H-Oxo) to rat cortex membranes. The note with it: rat cortex homogenate, 1.0 nM 3H-Oxotremorine, 30 min at 25° C. An excerpt: The pharmacological properties of the compounds of the invention can be illustrated by determining their capability to inhibit the specific binding of ^3H-Oxotremorine-M (^3H-Oxo). Birdsdall N. J. M., Hulme E. C., and Burgen A. S. V. (1980). “The Character of Muscarinic Receptors in Different Regions of the Rat Brain”. Proc. Roy. Soc. London (Series B) 207, 1.
^3H-Oxo labels muscarinic receptor in the CNS (with a preference for agonist domains of the receptors). Three different sites are labelled by ^3H-Oxo. […] Using the present experimental conditions only the high and medium affinity sites are determined.
The inhibitory effects of compounds on ^3H-Oxo binding reflects the affinity for muscarinic acetylcholine receptors.
All preparations are performed at 0-4° C. unless otherwise indicated. Fresh cortex (0.1-1 g) from male Wistar rats (150-250 g) is homogenized for 5-10 s in 10 ml 20 mM Hepes pH: 7.4, with an Ultra-Turrax homogenizer. The homogenizer is rinsed with 10 ml of buffer and the combined suspension centrifuged for 15 min. at 40,000×g. The pellet is washed three times with buffer. In each step the pellet is homogenized as before in 2×10 ml of buffer and centrifuged for 10 min. at 40,000×g.
The final pellet is homogenized in 20 mM Hepes pH: 7.4 (100 ml per g of original tissue) and used for binding assay. Aliquots of 0.5 ml is added 25 μl of test solution and 25 μl of ^3H-Oxotremorine (1.0 nM, final concentration) mixed and incubated for 30 min. at 25° C. Non-specific binding is determined in triplicate using arecoline (1 μg/ml, final concentration) as the test substance. After incubation samples are added 5 ml of ice-cold buffer and poured directly onto Whatman GF/C glass fiber filters under suction and immediately washed 2 times with 5 ml of ice-cold buffer. The amount of radioactivity on the filters are determined by conventional liquid scintillation counting. Specific binding is total binding minus non specific binding.
Test substances are dissolved in 10 ml water (if necessary heated on a steambath for less than 5 min.) at a concentration of 2.2 mg/ml. 25-75% inhibition of specific binding must be obtained before calculation of IC50.
The test value will be given as IC50 (the concentration (nM) of the test substance which inhibits the specific binding of ^3H-Oxo by 50%).
(§1) IC50=(applied test substance concentration)×(Cx/Co−Cx)nM
(§2) where Co is specific binding in control assays and Cx is the specific binding in the test assay. (The calculations assume normal mass-action kinetics).

The target of data set [2] is T1, muscarinic receptors (M1-site, pirenzepine sensitive site) (Rattus norvegicus, UniProt P08482).
T1 construct: Fresh cortex (0.1-1 g) from male Wistar rats (150-200 g) is homogenized; from tissue; host or cells: rat (male Wistar) cerebral cortex membranes
T1 sequence (P08482 1-460): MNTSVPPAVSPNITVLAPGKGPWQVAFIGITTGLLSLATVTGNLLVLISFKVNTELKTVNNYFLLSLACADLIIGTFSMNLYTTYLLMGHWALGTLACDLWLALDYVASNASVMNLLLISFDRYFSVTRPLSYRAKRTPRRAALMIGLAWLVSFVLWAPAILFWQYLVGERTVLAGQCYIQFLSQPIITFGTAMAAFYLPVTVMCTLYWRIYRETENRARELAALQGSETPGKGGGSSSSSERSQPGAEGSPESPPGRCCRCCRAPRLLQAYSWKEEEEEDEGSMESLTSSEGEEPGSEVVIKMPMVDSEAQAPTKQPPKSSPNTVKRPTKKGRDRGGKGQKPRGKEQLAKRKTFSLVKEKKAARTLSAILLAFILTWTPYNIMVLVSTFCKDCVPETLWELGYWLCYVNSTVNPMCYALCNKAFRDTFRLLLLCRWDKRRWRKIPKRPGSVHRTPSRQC
Put plainly: Inhibition of 3H-PRZ (pirenzepine, [N-methyl-3H]) binding to rat cerebral cortex membranes. The note with it: 1.0 nM 3H-Pirenzepine, 60 min at 20° C. As for the experimental part: Furthermore the pharmacological properties of the compounds of the invention can also be illustrated by determining their capability to inhibit ^3H-PRZ (pirenzepine, [N-methyl-^3H]) binding to rat cerebral cortex membranes. Pirenzepine binds selectively to subtype of muscarinic receptors. Historically the type is named the M1-site, whereas pirenzepine sensitive site would be more appropriate. Although selective for M1-sites pirenzepine also interact with M2-sites.
All preparations are performed at 0-4° C. unless otherwise indicated. Fresh cortex (0.1-1 g) from male Wistar rats (150-200 g) is homogenized for 5-10 s. in 10 ml 20 mM Hepes pH: 7.4, with an Ultra-Turrax homogenizer. The homogenizer is rinsed with 2×10 ml of buffer and the combined suspension centrifuged for 15 min at 40,000×g. The pellet is washed three times with buffer. In each step the pellet is homogenized as before in 3×10 ml of buffer and centrifuged for 10 min at 40,000×g.
The final pellet is homogenized in 20 mM Hepes pH: 7.4 (100 ml per g of original tissue) and used for binding assay. Aliquots of 0.5 ml is added 20 μl of test solution and 25 μl of ^3H-Pirenzepine (1.0 nM, final conc.), mixed and incubated for 60 min at 20° C. Non-specific binding is determined in triplicate using atropine (1 μg/ml, final conc.) as the test substance. After incubation samples are added 5 ml of ice-cold buffer and poured directly onto Whatman GF/C glass fiber filters under suction and immediately washed 2 times with 5 ml of ice-cold buffer. The amount of radioactivity on the filters are determined by conventional liquid scintillation counting. Specific binding is total binding minus non-specific binding.
Test substances are dissolved in 10 ml water, at a concentration of 0.22 mg/ml. 25-75% inhibition of specific binding must be obtained before calculation of IC50.
The test value will be given as IC50 (the concentration (nM) of the test substance which inhibits the specific binding of ^3H-PRZ by 50%).
as §1, §2

SMILES strings stand for the structures.

On to `CC(C#Cc1ccc(F)cc1)=CCOc1nsnc1OC1CN2CCC1C2` (stereo not drawn) [Compound 22, Endo (E)-3-(3-(5-(4-fluorophenyl)-3-methyl-2-penten-4-yn-1-yloxy)-1,2,5-thiadiazol-4-yloxy)-1-azabicyclo[2.2.1]heptane], for which the melting point – broadly, the temperature of the solid-liquid transition – lay within 82 to 84 °C. Also, the IC50 (commonly the midpoint of a concentration-inhibition curve) in data set [1] worked out at 190 nM. The IC50 in data set [2] was found to be 50 nM.
